In ChEMBL document CHEMBL1201862, “PubChem BioAssay data set” (2004):
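Protocol summary: plate cells (96-well), add compound at 5 concentrations, incubate 48 h, interpolate endpoints linearly. Abbreviation: GI50, concentration required for 50% inhibition of growth.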 Active and inactive are the calls of the source. Rule as the data show it: active = GI50 up to about 1.1 µM and inactive = higher. Where a SMILES comes first, the peptide text is derived from it. The star is where a group is joined. Boc = CC(C)(C)OC(=O)*

Key:
Assay in all cases: growth of human tumour cells (NCI), 48 h
SK-MEL-5 = tested on: SK-MEL-5
HL-60 = tested on: HL-60
SK-MEL-2 = tested on: SK-MEL-2
TK-10 = tested on: TK-10
SN12C = tested on: SN12C
MOLT-4 = tested on: MOLT-4
SF-539 = tested on: SF-539
HOP-62 = tested on: HOP-62
A549 = tested on: A549
IGROV-1 = tested on: IGROV-1
SR = tested on: SR
SK-OV-3 = tested on: SK-OV-3
SNB-19 = tested on: SNB-19
OVCAR-4 = tested on: OVCAR-4
LOX IMVI = tested on: LOX IMVI
EKVX = tested on: EKVX
SK-MEL-28 = tested on: SK-MEL-28
OVCAR-5 = tested on: OVCAR-5
K562 = tested on: K562
NCI/ADR-RES = tested on: NCI/ADR-RES

Compound	GI50 (SK-MEL-5)	GI50 (HL-60)	GI50 (SK-MEL-2)	GI50 (TK-10)	GI50 (SN12C)	GI50 (MOLT-4)	GI50 (SF-539)	GI50 (HOP-62)	GI50 (A549)	GI50 (IGROV-1)	GI50 (SR)	GI50 (SK-OV-3)	GI50 (SNB-19)	GI50 (OVCAR-4)	GI50 (LOX IMVI)	GI50 (EKVX)	GI50 (SK-MEL-28)	GI50 (OVCAR-5)	GI50 (K562)	GI50 (NCI/ADR-RES)
c1ccc2cc(-c3cc4ccccc4s3)ccc2c1	> 100 µM (inactive)	> 100 µM (inactive)	> 100 µM (inactive)	> 100 µM (inactive)	> 100 µM (inactive)	38.2 µM (inactive)	> 100 µM (inactive)	> 100 µM (inactive)	> 100 µM (inactive)	> 100 µM (inactive)	> 100 µM (inactive)	22.1 µM (inactive)	> 100 µM (inactive)	> 100 µM (inactive)	> 100 µM (inactive)	> 100 µM (inactive)	> 100 µM (inactive)	> 100 µM (inactive)	> 100 µM (inactive)	
CC(C)(/N=N/C(C)(C)C1=NCCN1)C1=NCCN1	> 100 µM (inactive)		> 100 µM (inactive)	> 56 µM (inactive)	> 78.5 µM (inactive)	> 100 µM (inactive)	> 67.1 µM (inactive)	> 100 µM (inactive)		> 100 µM (inactive)			> 100 µM (inactive)	> 100 µM (inactive)	> 66.1 µM (inactive)	> 100 µM (inactive)	> 100 µM (inactive)	> 100 µM (inactive)	> 56.5 µM (inactive)	> 100 µM (inactive)
Nc1nc(SCc2ccccc2Cl)c2ncn(C3OC(CO)C(O)C3O)c2n1 (stereo not drawn)	54.2 µM (inactive)	50.5 µM (inactive)	> 100 µM (inactive)	> 100 µM (inactive)	> 100 µM (inactive)	49.3 µM (inactive)	89.1 µM (inactive)	> 100 µM (inactive)	96.6 µM (inactive)	> 100 µM (inactive)	42.7 µM (inactive)	> 100 µM (inactive)	38.8 µM (inactive)	74.3 µM (inactive)	68.9 µM (inactive)		69.2 µM (inactive)	> 100 µM (inactive)	57 µM (inactive)	
CS(=O)(=O)Nc1ccc(N2Cc3c[nH]c4ccc5nccc2c5c34)cc1	14.7 µM (inactive)	29 µM (inactive)	16.4 µM (inactive)	23 µM (inactive)	14 µM (inactive)	2.72 µM (inactive)		17.5 µM (inactive)	33.4 µM (inactive)	22.2 µM (inactive)			13.1 µM (inactive)	14 µM (inactive)	12.2 µM (inactive)	44.7 µM (inactive)	18.9 µM (inactive)	22.8 µM (inactive)	11.4 µM (inactive)	> 100 µM (inactive)
CSc1cnc2ccccc2c1Sc1c[nH]c2ccccc2c1=O	6.25 µM (inactive)	3.3 µM (inactive)	10.4 µM (inactive)	36 µM (inactive)	11.8 µM (inactive)	3.28 µM (inactive)	11.5 µM (inactive)	12.2 µM (inactive)	5.51 µM (inactive)	14.4 µM (inactive)	3.96 µM (inactive)	3.51 µM (inactive)	20 µM (inactive)	14.1 µM (inactive)	11.5 µM (inactive)	7.87 µM (inactive)	11.1 µM (inactive)	24.4 µM (inactive)	3.46 µM (inactive)	
Cc1ccc(C(=O)O/N=C2/CCCCC2CN(C)C)cc1 (stereo not drawn)	> 100 µM (inactive)	> 100 µM (inactive)	> 100 µM (inactive)	> 100 µM (inactive)	> 100 µM (inactive)	> 100 µM (inactive)	> 100 µM (inactive)	> 100 µM (inactive)	> 100 µM (inactive)	> 100 µM (inactive)	> 100 µM (inactive)	> 100 µM (inactive)		> 100 µM (inactive)	> 100 µM (inactive)	> 100 µM (inactive)	> 100 µM (inactive)	> 100 µM (inactive)	> 100 µM (inactive)	
NC1CC(=O)c2ccccc21 (stereo not drawn)	> 100 µM (inactive)		> 100 µM (inactive)	> 100 µM (inactive)	> 100 µM (inactive)	> 100 µM (inactive)	> 100 µM (inactive)	> 100 µM (inactive)	> 100 µM (inactive)	> 100 µM (inactive)		> 100 µM (inactive)	> 100 µM (inactive)	> 100 µM (inactive)	> 100 µM (inactive)	> 100 µM (inactive)	> 100 µM (inactive)	> 100 µM (inactive)	> 100 µM (inactive)	> 100 µM (inactive)
CCO[C@H]1C[C@@H](c2ccccc2)[C@]2(C)C[C@H](C(=O)OC)ON2O1	> 100 µM (inactive)	> 100 µM (inactive)	> 100 µM (inactive)	> 100 µM (inactive)	> 100 µM (inactive)	> 100 µM (inactive)	> 100 µM (inactive)	> 100 µM (inactive)	> 100 µM (inactive)	> 100 µM (inactive)			> 100 µM (inactive)	> 100 µM (inactive)	> 100 µM (inactive)	> 100 µM (inactive)	> 100 µM (inactive)	> 100 µM (inactive)	> 100 µM (inactive)	> 100 µM (inactive)
CCn1c(O)c(C(=O)Nc2cccs2)c(=O)n(CC)c1=S	18 µM (inactive)	19.8 µM (inactive)	17.3 µM (inactive)	29 µM (inactive)	20 µM (inactive)	20 µM (inactive)	18.5 µM (inactive)	21.6 µM (inactive)	18.5 µM (inactive)	20.5 µM (inactive)	29.5 µM (inactive)	26.7 µM (inactive)	19.5 µM (inactive)	15.3 µM (inactive)	17 µM (inactive)		17.3 µM (inactive)	23.7 µM (inactive)	21.9 µM (inactive)	
O=[N+]([O-])c1cc2c(cc1O)[nH]c1cccc([N+](=O)[O-])c12	40.7 µM (inactive)	> 100 µM (inactive)	> 100 µM (inactive)	> 100 µM (inactive)	> 100 µM (inactive)	> 100 µM (inactive)	> 100 µM (inactive)	> 100 µM (inactive)	> 100 µM (inactive)		> 100 µM (inactive)		> 100 µM (inactive)	> 100 µM (inactive)	> 100 µM (inactive)		> 100 µM (inactive)	> 100 µM (inactive)	> 100 µM (inactive)	
CC(C)(C)OC(=O)NC(Cc1ccc(O)cc1)C(=O)N1CCCC1C(=O)O (stereo not drawn) (Boc-Tyr-Pro-OH; configuration not given here)	> 100 µM (inactive)	> 100 µM (inactive)	> 100 µM (inactive)	> 100 µM (inactive)	> 100 µM (inactive)	> 100 µM (inactive)	> 100 µM (inactive)	> 100 µM (inactive)	> 100 µM (inactive)	> 100 µM (inactive)	> 100 µM (inactive)	> 100 µM (inactive)	> 100 µM (inactive)	> 100 µM (inactive)	> 100 µM (inactive)	> 100 µM (inactive)	> 100 µM (inactive)	> 100 µM (inactive)	> 100 µM (inactive)	
S=c1sc2c(n1-c1ccccc1)N=CNC2S (stereo not drawn)	57 µM (inactive)	71.6 µM (inactive)	> 100 µM (inactive)	> 100 µM (inactive)	69.3 µM (inactive)	92.5 µM (inactive)	65.3 µM (inactive)	41.3 µM (inactive)	65.9 µM (inactive)	> 100 µM (inactive)	95.9 µM (inactive)	> 100 µM (inactive)	73.1 µM (inactive)	> 100 µM (inactive)	> 100 µM (inactive)	64.1 µM (inactive)	> 100 µM (inactive)	> 100 µM (inactive)	63.2 µM (inactive)	
COc1ccc2c(c1)[n+]([O-])c(C(N)=O)c(N)[n+]2[O-]	40.1 µM (inactive)	40.8 µM (inactive)	> 100 µM (inactive)		> 100 µM (inactive)		> 100 µM (inactive)	> 100 µM (inactive)	> 100 µM (inactive)	75.7 µM (inactive)	> 100 µM (inactive)	> 100 µM (inactive)	> 100 µM (inactive)	> 100 µM (inactive)		> 100 µM (inactive)	> 100 µM (inactive)	> 100 µM (inactive)	> 100 µM (inactive)	
c1ccc2c(CNCCCN3CCN(CCCNCc4cccc5ccccc45)CC3)cccc2c1	1.74 µM (inactive)	1.44 µM (inactive)	1.65 µM (inactive)	1.5 µM (inactive)	3.68 µM (inactive)	1.22 µM (inactive)	1.61 µM (inactive)	19.8 µM (inactive)	2.01 µM (inactive)	3.07 µM (inactive)	0.655 µM (active)	2.39 µM (inactive)		2.21 µM (inactive)	1.35 µM (inactive)	3.6 µM (inactive)	1.69 µM (inactive)	2.15 µM (inactive)	0.299 µM (active)	
CC(C)(Oc1ccc(Cl)cc1)C(=O)N(C(=O)N1CCCCC1)c1ccccc1	10.4 µM (inactive)	2.16 µM (inactive)	13.1 µM (inactive)		17 µM (inactive)	3.41 µM (inactive)	8.34 µM (inactive)			5.09 µM (inactive)		19.8 µM (inactive)	16.8 µM (inactive)		11.4 µM (inactive)	2.45 µM (inactive)	15.2 µM (inactive)	12 µM (inactive)	8.17 µM (inactive)	14.5 µM (inactive)
CCC(=O)c1cn(C)c(=O)c2ccccc12	> 100 µM (inactive)	> 100 µM (inactive)	> 100 µM (inactive)	> 100 µM (inactive)	> 100 µM (inactive)	> 100 µM (inactive)	> 100 µM (inactive)	> 100 µM (inactive)	> 100 µM (inactive)	> 100 µM (inactive)	> 100 µM (inactive)	> 100 µM (inactive)	> 100 µM (inactive)	> 100 µM (inactive)	> 100 µM (inactive)	> 100 µM (inactive)	> 100 µM (inactive)	> 100 µM (inactive)	> 100 µM (inactive)	
